Measurements published in US20250299826A1, “OPTIMAL TUMOR MICROENVIRONMENT NORMALIZATION THERAPY” (University of Connecticut, priority 2022, published 2025).

System: orthotopic 4T1 breast cancer
Assay: Tumor transport model simulation: IFP/IFV, solute concentration and transvascular convective/diffusive flux profiles
Settings: DEX treatment

SMILES: C[C@@H]1C[C@H]2[C@@H]3CCC4=CC(=O)C=C[C@]4(C)[C@@]3(F)[C@@H](O)C[C@]2(C)[C@@]1(O)C(=O)CO [DEX, dexamethasone]
- increase in volume fraction of tumor dominated by convective transport vs control: 61%
